The text below walks through data of patent publication US20250376458A1, “COMPOUNDS AND METHODS FOR YAP/TEAD MODULATION AND INDICATIONS THEREFOR” (OPNA BIO SA, priority 2023, published 2025).

This experiment deals with TEAD-dependent transcription. As to the kind of experiment: TEAD-dependent transcription cell-based luciferase reporter assay (MSTO-211H+12XGTIIC). To be noted: MSTO-211H+12XGTIIC cell line, 24 hours compound incubation, luminescence normalized to cell viability fluorescence signal, read-out: MSTO-211H GMean IC50 (uM) Cell Assay Reporter Cell Variant: TEAD. The arrangement: species or system human. The source says:
Determine Inhibitor Activity Against TEAD-Dependent Transcription in a Cell-Based Reporter Assay
The human mesothelioma cell line MSTO-211H was stably transfected with a pGL4.21 plasmid containing a synthetic promoter with 12 copies of the GTIIC TEAD response element that drives the expression of a luciferase reporter gene i using Lipofectamine transfection reagent (Thermo Fisher). Transfected cells were selected using puromycin and single cell clones expressing this construct (referred to as MSTO-211H+12XGTIIC) were generated by limiting dilution. MSTO-211H cells was characterized by genetic alterations in key components of the Hippo pathway^2, resulting in up-regulation of YAP/TEAD-mediated transcription. […] To evaluate TEAD inhibitors, the MSTO-211H+12XGTIIC cell line was seeded in a 96-well plate in 50 μL of culture media at 1×10^4 cells per well and incubated at 37° C. overnight. Serial dilutions of compounds (in total volume of 50 μL of culture media) were added to the cells and incubated at 37° C. for 24 hours. Each plate included cells treated with DMSO as high controls and cells treated with 20 μM of the reference compound K-975 (a known TEAD inhibitor)^3 as low controls. Cell viability was assayed by the addition of 25 μL of CellTiter-Fluor reagent (Promega) followed by a 30-minute incubation at 37° C. and quantification of the fluorescence signal (Ex400/Em505). Subsequently, luciferase expression was assayed by the addition of 25 μL of ONE-Glo reagent (Promega) followed by a 10-minute incubation at room temperature and quantification of the luminescence signal. The luminescence signal was normalized to the fluorescence signal to correct for any loss in cell viability over the 24-hour compound incubation period. The percentage of inhibition of normalized luminescence signal, indicative of compound-mediated inhibition of TEAD-dependent transcription, at individual compound concentrations relative to high and low controls was calculated. The data were analyzed by using nonlinear regression to generate IC50 values for individual compounds.
Background: A reporter such as luciferase makes a cellular process visible.

Where two headings read alike, the source gives them in different places.

Turning to `CS(=O)(=O)c1nc(C(=O)N2CCc3ccc(Nc4ccc(C(F)(F)F)c(F)c4)cc3C2)c[nH]1` [O-0121, (7-((3-fluoro-4-(trifluoromethyl)phenyl)amino)-3,4-dihydroisoquinolin-2(1H)-yl)(2-(methylsulfonyl)-1H-imidazol-4-yl)methanone], the half-inhibitory concentration (IC50) was in the range of 0.001 to 10 µM.
The same measure, in the same setting: to `CCS(=O)(=O)c1nc(C(=O)N2CCc3c(ncnc3Oc3ccc(C(F)(F)F)cc3F)C2)c[nH]1` [O-0129, (2-(ethylsulfonyl)-1H-imidazol-4-yl)(4-(2-fluoro-4-(trifluoromethyl)phenoxy)-5,8-dihydropyrido[3,4-d]pyrimidin-7(6H)-yl)methanone] belongs 10 to 100 µM.
Regarding `CC(C)S(=O)(=O)c1nc(C(=O)N2CCc3c(cccc3Nc3ccc(C(F)(F)F)c(F)c3)C2)c[nH]1` [O-0027, (5-((3-fluoro-4-(trifluoromethyl)phenyl)amino)-3,4-dihydroisoquinolin-2(1H)-yl)(2-(isopropylsulfonyl)-1H-imidazol-4-yl)methanone], the half-maximal inhibitory concentration (IC50) (Homo sapiens, MSTO-211H, 24 h) fell in the range of 0.001 to 10 µM.
With `CS(=O)(=O)c1nc(C(=O)N2CCc3c(ncnc3Oc3ccc(C(F)(F)F)c(F)c3)C2)c[nH]1` [O-0115, (4-(3-fluoro-4-(trifluoromethyl)phenoxy)-5,8-dihydropyrido[3,4-d]pyrimidin-7(6H)-yl)(2-(methylsulfonyl)-1H-imidazol-4-yl)methanone], the IC50 lay within 0.001 to 10 µM.
As to `CS(=O)(=O)c1nc(C(=O)N2CCc3c(cccc3Nc3ccc(C(F)(F)F)c(F)c3)C2)c[nH]1` [O-0004, (5-((3-fluoro-4-(trifluoromethyl)phenyl)amino)-3,4-dihydroisoquinolin-2(1H)-yl)(2-(methylsulfonyl)-1H-imidazol-4-yl)methanone], the IC50 (Homo sapiens, MSTO-211H, 24 h) is 0.001 to 10 µM.
Same read-out and setting: next, `CCCS(=O)(=O)c1nc(C(=O)N2CCc3c(cccc3Nc3ccc(C(F)(F)F)c(F)c3)C2)c[nH]1` [O-0026, (5-((3-fluoro-4-(trifluoromethyl)phenyl)amino)-3,4-dihydroisoquinolin-2(1H)-yl)(2-(propylsulfonyl)-1H-imidazol-4-yl)methanone]: 0.001 to 10 µM; `CCCS(=O)(=O)c1nc(C(=O)N2CCc3cc(Oc4ccc(C(F)(F)F)cc4)ccc3C2)c[nH]1` [O-0081, (2-(propylsulfonyl)-1H-imidazol-4-yl)(6-(4-(trifluoromethyl)phenoxy)-3,4-dihydroisoquinolin-2(1H)-yl)methanone]: 0.001 to 10 µM.

By IC50 is commonly meant the concentration that gives 50% inhibition.
